Common to all, as to experiment: NCI-60 cell line screen, 48 h
The test system of assay [1] is 786-0.
Assay [2] deals with A549.
The test system of assay [3] is CAKI-1.
Assay [4] has as its system COLO 205.
Assay [5] relates to EKVX.
In assay [6] the test system is HCT-15.
Assay [7] relates to HT-29.
For assay [8], the system named is LOX IMVI.
Assay [9] relates to MDA-N.
For assay [10], the system named is MOLT-4.
The subject of assay [11] is NCI-H460.
For assay [12], the system named is NCI/ADR-RES.
The subject of assay [13] is OVCAR-3.
The test system of assay [14] is OVCAR-5.
Assay [15] relates to RXF 393.
Assay [16] relates to SF-268.
For assay [17], the system named is SNB-19.
Assay [18] relates to SNB-75.
Assay [19] relates to UACC-62.
Assay [20] deals with UO-31.

Where “and” joins values, the source holds several entries; their conditions need not be identical. Equal values may be shown once.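 How tested: cells in 96-well plates exposed to compound for 48 hours at five concentrations. GI50 = concentration required for 50% inhibition of growth.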 Calls of active or inactive are those of the source. No stated cut-off is given here; in the data, active = GI50 up to about 1.1 µM and inactive = higher.

`COc1ccc(C2=NN(C(=N)S)C(c3ccccc3)C2)cc1` (stereo not given): the GI50 in assay [1] is 38.3 µM (inactive); in assay [2], 34.8 µM (inactive); in assay [3] it was 40.6 µM (inactive); in [4], 25.8 µM (inactive); in assay [5], 35.9 µM (inactive); in assay [6], 33.6 µM. Also, the GI50 in assay [7] is 38.9 µM (inactive); in [8] it was 38.3 µM (inactive); in assay [9], 27.9 µM (inactive); in assay [10], 28 µM (inactive); in assay [11], 30 µM (inactive); in [12], 34.5 µM (inactive). Further, the GI50 is 35.6 µM (inactive) in assay [13]; 58.2 µM (inactive) in assay [14]; 24.4 µM (inactive) in assay [15]; 43.6 µM (inactive) in [16]; 51.8 µM (inactive) in assay [17]; 29 µM (inactive) in assay [18]. For the same compound, the GI50 in assay [19] was 35.3 µM (inactive); in assay [20], 43.4 µM (inactive).
With `Cc1ccc(NC(=S)N/N=C2\C(=O)Nc3ccccc32)cc1`, the GI50 is > 100 µM (inactive) in assay [1]; > 100 µM (inactive) in assay [2]; > 100 µM (inactive) in [3]; > 100 µM (inactive) in [4]; 75.9 µM (inactive) in assay [5]; over 100 µM in assay [6]. In addition, the GI50 was > 100 µM (inactive) in [7]; 66.5 µM (inactive) in [8]; > 100 µM (inactive) in assay [9]; > 100 µM (inactive) in assay [10]; 83 µM (inactive) in [11]; 51.3 µM (inactive) in [12]. Moreover, the GI50 is > 100 µM (inactive) in [13]; > 100 µM (inactive) in assay [14]; 84.7 µM (inactive) in [15]; 1.69 µM (inactive) in assay [16]; > 100 µM (inactive) in [17]; > 100 µM (inactive) in assay [18]. Moreover, the GI50 was > 100 µM (inactive) in assay [19] and 78.5 µM (inactive) in assay [20].
Take `COc1ccc(Cn2c3ccc([N+](=O)[O-])cc3c(=O)n2Cc2ccccn2)cc1`: the GI50 is > 100 µM (inactive) in assay [1]; > 100 µM (inactive) in assay [2]; > 100 µM (inactive) in assay [3]; > 100 µM (inactive) in [4]; 66.5 µM (inactive) in [5]; over 100 µM in [6]. The GI50 is > 100 µM (inactive) in [7]; 78.2 µM (inactive) in [8]; 40.6 µM (inactive) in assay [9]; 31.3 µM (inactive) in assay [10]; > 100 µM (inactive) in assay [11]; 39.7 µM (inactive) in assay [12]. Moreover, the GI50 is > 100 µM (inactive) in assay [13]; > 100 µM (inactive) in [14]; 86.5 µM (inactive) in assay [15]; > 100 µM (inactive) in [16]; > 100 µM (inactive) in assay [17]; 37.8 µM (inactive) in assay [18]. Further, the figures for the GI50 in [19] and in assay [20] were 43.9 µM (inactive) and > 100 µM (inactive), respectively.
For `CCc1nnc2sc(-c3ccc(-c4ccccc4[N+](=O)[O-])o3)nn12`, the GI50 was 54.8 µM (inactive) in assay [1]; 36.5 µM (inactive) in assay [2]; 66.4 µM (inactive) in [3]; 34.9 µM (inactive) in assay [4]; 21.6 µM (inactive) in [5]; 30.1 µM in [6]. Besides, the GI50 in [7] is 35.6 µM (inactive); in [8] it was 36.2 µM (inactive); in assay [9] it was 19.9 µM (inactive); in [10], 19.5 µM (inactive); in [11] it was 31 µM (inactive); in [12] it was 27 µM (inactive). In addition, the GI50 in [13] was 32.1 µM (inactive); in assay [14], 62.2 µM (inactive); in assay [15] it was 57.9 µM (inactive); in assay [16], 49.1 µM (inactive); in assay [17], 75.3 µM (inactive); in [18] it was > 100 µM (inactive). Also, the GI50 was 45.7 µM (inactive) in [19] and 41.9 µM (inactive) in assay [20].
For the compound `Cc1n[nH]c(=O)n1C1CC1`, the GI50 in assay [1] was > 100 µM (inactive); in assay [2], > 100 µM (inactive); in [3] it was > 100 µM (inactive); in [4], > 100 µM (inactive); in [5] it was > 100 µM (inactive); in assay [6], over 100 µM. Further, the GI50 in assay [7], in assay [8], in [9], in assay [10], in assay [11] and in assay [12] was > 100 µM (inactive) throughout. For the same compound, the GI50 is > 100 µM (inactive) in assay [13]; > 100 µM (inactive) in assay [14]; > 100 µM (inactive) in assay [15]; > 100 µM (inactive) in [16]; > 100 µM (inactive) in [17]; 42.7 µM (inactive) in [18]. The GI50 in assay [19] and in [20] was > 100 µM (inactive) each time.
As to `COc1cc(/C=C2\S/C(=N/Nc3nc(-c4ccc(Br)cc4)cs3)NC2=O)cc(OC)c1OC`, the GI50 in assay [1] is 9.44 µM (inactive); in [2], 13.6 µM (inactive); in assay [3], 18.2 µM (inactive); in [4], 26.8 µM (inactive); in assay [5] it was 7.8 µM (inactive); in assay [6] it was 11.3 µM. For the same compound, the GI50 in assay [7] is 18.4 µM (inactive); in assay [8], 9.29 µM (inactive); in [9], 17.4 µM (inactive); in assay [10], 3.78 µM (inactive); in assay [11], 11.9 µM (inactive); in assay [12], 15.9 µM (inactive). The GI50 was 13.6 µM (inactive) in [13]; 18.2 µM (inactive) in assay [14]; 4.07 µM (inactive) in [15]; 20 µM (inactive) in [16]; 4.74 µM (inactive) in assay [17]; 9.2 µM (inactive) in assay [18]. Moreover, the GI50 in assay [19] was 11.1 µM (inactive); in assay [20] it was 3.91 µM (inactive).
As for `C=C(c1ccccc1)C1ON(C)CCc2cc(OC)c(OC)cc21` (stereo not given), the GI50 in [1] is > 100 µM (inactive); in [2], > 100 µM (inactive); in assay [3], > 100 µM (inactive); in assay [4] it was > 100 µM (inactive); in assay [5], > 100 µM (inactive); in assay [6], 68.1 µM. The GI50 is 75.3 µM (inactive) in assay [7]; 26.2 µM (inactive) in assay [8]; > 100 µM (inactive) in [9]; 89.3 µM (inactive) in assay [10]; > 100 µM (inactive) in assay [11]; 48.4 µM (inactive) in assay [12]. Also, the GI50 in assay [13] was > 100 µM (inactive); in assay [14], > 100 µM (inactive); in [15], > 100 µM (inactive); in assay [16], 49.2 µM (inactive); in [17] it was > 100 µM (inactive); in [18] it was > 100 µM (inactive). In addition, the GI50 was > 100 µM (inactive) in assay [19] and 81.5 µM (inactive) in assay [20].
As to `COc1ccc(-c2c(C#N)c(N)n(C3OCC(OC(C)=O)C(OC(C)=O)C3OC(C)=O)c(=S)c2C#N)cc1` (stereo not given), the GI50 in assay [1] is 42.4 µM (inactive) and 36.8 µM (inactive); in [2], 99.5 µM (inactive) and 65.3 µM (inactive); in assay [3], 38.5 µM (inactive) and 23.1 µM (inactive); in [4] it was 36.1 µM (inactive) and 50.1 µM (inactive); in assay [5], 34.7 µM (inactive) and 22.6 µM (inactive); in [6], 73.1 µM and 62.5 µM. Besides, the GI50 in assay [7] was 41.2 µM (inactive) and 44.5 µM (inactive); in assay [8], 30 µM (inactive) and 34 µM (inactive); in [9], 43 µM (inactive) and 51.2 µM (inactive); in assay [10], 17.6 µM (inactive) and 14.3 µM (inactive); in assay [11], 44.1 µM (inactive) and 36.4 µM (inactive); in assay [12], > 100 µM (inactive). In addition, the GI50 in [13] was 31.8 µM (inactive) and 23.4 µM (inactive); in [14] it was 45.7 µM (inactive) and 43.8 µM (inactive); in [15], 19.1 µM (inactive) and 33.6 µM (inactive); in assay [16], 31.4 µM (inactive); in [17], > 100 µM (inactive); in assay [18], 31.8 µM (inactive) and 21 µM (inactive). In addition, the GI50 is 30.8 µM (inactive) and 40.9 µM (inactive) in assay [19]; 23.1 µM (inactive) and 22 µM (inactive) in [20].
As to `c1ccc2c(c1)-c1ccccc1C2NC1=NCCO1`, the GI50 was 28.1 µM (inactive) in assay [1]; 32.4 µM (inactive) in assay [2]; 28.5 µM (inactive) in assay [3]; 18.9 µM (inactive) in assay [4]; 40.6 µM (inactive) in assay [5]; 9.4 µM in assay [6]. The GI50 was 21.7 µM (inactive) in [7]; 20.5 µM (inactive) in assay [8]; 11.8 µM (inactive) in assay [9]; 29.4 µM (inactive) in assay [10]; 14 µM (inactive) in [11]; 23.4 µM (inactive) in assay [12]. For the same compound, the GI50 was 23.1 µM (inactive) in assay [13]; 38.8 µM (inactive) in assay [14]; 42.2 µM (inactive) in assay [15]; 30 µM (inactive) in [16]; 36.6 µM (inactive) in assay [17]; 15.4 µM (inactive) in [18]. In addition, the GI50 in [19] is 20.5 µM (inactive); in assay [20], 24.1 µM (inactive).
Regarding `Cc1ccnc2nc(-c3ccc(Cl)cc3)cc(O)c12`, the GI50 in assay [1] was 4.46 µM (inactive); in assay [2], 9.08 µM (inactive); in assay [3], 6.68 µM (inactive); in assay [4] it was 2.33 µM (inactive); in assay [5] it was 29.7 µM (inactive); in assay [6], 2.32 µM. In addition, the GI50 in [7] is 3.23 µM (inactive); in [8] it was 4.13 µM (inactive); in assay [9], 0.752 µM (active); in assay [10], 3.99 µM (inactive); in assay [11], 3.85 µM (inactive); in [12], 3.88 µM (inactive). For the same compound, the GI50 was 4.89 µM (inactive) in assay [13]; > 100 µM (inactive) in [14]; 8.45 µM (inactive) in assay [15]; 28.4 µM (inactive) in assay [16]; 19.1 µM (inactive) in assay [17]; 2.17 µM (inactive) in assay [18]. The GI50 is 3.01 µM (inactive) in [19] and 13.1 µM (inactive) in assay [20].

The values above are taken from ChEMBL document CHEMBL1201862, “PubChem BioAssay data set” (2004).
